Assay results reported in EP4745153A1, “GLP-1, GIP AND GCG RECEPTOR […] USE THEREOF” (Jiangsu Hengrui Pharmaceuticals Co., Ltd., priority 2023, dated 2025).
Where two headings read alike, the source gives them in different places. Starred links: 1 amine or outer side, 2 acyl side, 3 side chain; linkers in the order of their positions; H or OH if unused. Non-standard residues stand in square brackets, D forms with d. Residues, ends and D or L forms follow the SMILES beside them. Groups on a side chain read outwards from the residue. ξ: configuration not given here. *: point of attachment. C20 diacid = O=C(O)CCCCCCCCCCCCCCCCCCC(=O)*; γGlu = O=C(O)[C@H](CCC(=O)[*:2])N[*:1]; αMeK = C[C@](N)(CCCCN)C(=O)O; ξIva = CCC(C)(N)C(=O)O; AEEA = NCCOCCOCC(=O)O; Aib = CC(C)(N)C(=O)O

Tests used:
human GIPR = target: T1, human GIPR (Homo sapiens, UniProt P48546); experiment: cAMP HTRF agonist activity assay in CHO-K1 cells expressing GIPR; type: cell-based; details: read-out: Activity against human GIPR (EC50 nM); also: 5% FBS, 0.1% Casein
T1 construct: expressed in transfected cells; host or cells: CHO-K1 clonal cell line
T1 sequence (P48546 22-466): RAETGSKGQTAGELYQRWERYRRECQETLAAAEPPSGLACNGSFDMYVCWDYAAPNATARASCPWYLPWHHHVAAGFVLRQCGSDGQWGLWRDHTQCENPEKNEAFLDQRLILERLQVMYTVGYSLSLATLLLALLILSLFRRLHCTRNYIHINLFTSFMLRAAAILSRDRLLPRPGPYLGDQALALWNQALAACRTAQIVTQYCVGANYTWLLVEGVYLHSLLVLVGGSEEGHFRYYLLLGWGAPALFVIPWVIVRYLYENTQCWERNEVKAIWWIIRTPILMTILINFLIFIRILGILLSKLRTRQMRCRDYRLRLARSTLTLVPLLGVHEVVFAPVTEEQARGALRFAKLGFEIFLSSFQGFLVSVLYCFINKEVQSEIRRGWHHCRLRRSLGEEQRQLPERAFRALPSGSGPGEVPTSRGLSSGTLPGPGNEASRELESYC
Procedure: Functional activity was determined in CHO-K1 clonal cell lines expressing GIPR, GLP-1R, and GCGR. […] Each recipient cell (5000 cells/well) was added to an SV 96-well plate (Cisbio, 66PL96025) and incubated with the prepared polypeptide at 37°Cfor 30 min. The resulting increase in intracellular cAMP was quantitatively measured using the cAMP-GS dynamic HTRF assay kit (Cisbio, 62AM4PEJ). Briefly, the intracellular cAMP levels were determined by adding cAMP-d2 conjugate in cell lysis buffer, followed by the antibody anti-cAMP-Eu cryptate (also in cell lysis buffer).
Using the maximum response percentage vs. the added polypeptide concentration, the relative EC50 values were derived through nonlinear regression analysis and fitted to a four-parameter logarithmic equation. For specific data, refer to Tables 7-1 to 7-8 below. […]

[1] = Pharmacokinetics in mice after single intravenous injection; parameters: species or system C57 mice; details: in vivo
Procedure: Male C57 mice were used as test animals. The target compound was administered via a single intravenous injection, and the pharmacokinetic characteristics of the compound in C57 mice in vivo (plasma) were determined.
Male C57 mice, weighing approximately 25g, aged 4-6 weeks. After preparing the polypeptide compound solution using 1×PBS dissolving solution, the compound was administered intravenously at a dose of 200 nmol/kg, where each compound was administered to 3 animals. Blood samples of 60 µL were collected at 5 min, 15 min, 0.5 h, 1 h, 2 h, 4 h, 6 h, 24 h, 48 h and 72 h after the infusion was completed and transferred to centrifuge tubes containing EDTA-K2 anticoagulant. Whole blood samples were centrifuged at 4000 g for 5 min at 4°C. Plasma was separated and plasma samples were frozen and stored at -80 °C.
Sample pretreatment method: 30 µL of plasma samples was taken, and 120 µL of 0.1% formic acid in methanol containing 1 ng/mL internal standard verapamil was added. The mixture was vortexed for 5 min, and centrifuged at 10000 rpm for 10 min at low temperature. 70 µL of supernatant was taken, and 70 µL of water was added and mixed well. Analysis was performed by LC-MS instrument.
LC-MS analysis method: (1) chromatographic conditions: mobile phases A and B: 0.1% formic acid in water and 0.1% formic acid in acetonitrile, respectively; gradient elution mode; flow rate: 0.5 mL/min; injection volume: 10 µL; chromatographic column: nanomicro Unisil C18aq (4.6 mm × 150 mm, 5 µm); column temperature: 40°C. (2) Mass spectrometry conditions: For mass spectrometry, an electrospray ionization source (ESI), positive ion analysis mode, and multiple reaction monitoring (MRM) scanning mode were used.
For data processing, SCIEX OS (Version 2.1.6) software was used to quantify blood drug concentration data and PKSolver (Version 2.0) software was used to calculate pharmacokinetic parameters.

[2] = mouse, male C57 mice, single intravenous dose 200 nmol/kg, plasma

For `CC[C@H](C)[C@H](NC(=O)[C@H](CO)NC(=O)[C@H](Cc1ccc(O)cc1)NC(=O)[C@H](CC(=O)O)NC(=O)[C@H](CO)NC(=O)[C@@H](NC(=O)[C@H](Cc1ccccc1)NC(=O)[C@@H](NC(=O)CNC(=O)[C@H](Cc1c[nH]cn1)NC(=O)C(C)(C)NC(=O)[C@@H](N)Cc1c[nH]cn1)[C@@H](C)O)[C@@H](C)O)C(=O)N[C@@H](CC(C)C)C(=O)N[C@@H](CC(C)C)C(=O)N[C@@H](CCC(=O)O)C(=O)N[C@@H](CCCCNC(=O)COCCOCCNC(=O)COCCOCCNC(=O)CC[C@H](NC(=O)CCCCCCCCCCCCCCCCCCC(=O)O)C(=O)O)C(=O)N[C@@H](CCC(N)=O)C(=O)N[C@@H](C)C(=O)N[C@@H](C)C(=O)N[C@@H](CCC(N)=O)C(=O)N[C@@H](CCC(=O)O)C(=O)N[C@@H](Cc1ccccc1)C(=O)N[C@H](C(=O)N[C@@H](CCC(=O)O)C(=O)N[C@@H](Cc1c[nH]c2ccccc12)C(=O)N[C@@H](CC(C)C)C(=O)N[C@@H](CC(C)C)C(=O)N[C@@H](C)C(=O)NCC(=O)NCC(=O)N1CCC[C@H]1C(=O)N[C@@H](CO)C(=O)N[C@@H](CO)C(=O)NCC(=O)N[C@@H](C)C(=O)N1CCC[C@H]1C(=O)N1CCC[C@H]1C(=O)N1CCC[C@H]1C(=O)N[C@@H](CO)C(N)=O)C(C)C` [Compound 0152] (H-H[Aib]HGTFTSDYSILLEK([AEEA-AEEA-γGlu-C20 diacid])QAAQEFVEWLLAGGPSSGAPPPS-NH2), the EC50 (human GIPR) was 0.009 nM.

With `CC[C@H](C)[C@H](NC(=O)[C@H](CO)NC(=O)[C@H](Cc1ccc(O)cc1)NC(=O)[C@H](CC(=O)O)NC(=O)[C@H](CO)NC(=O)[C@@H](NC(=O)[C@H](Cc1ccccc1)NC(=O)[C@@H](NC(=O)CNC(=O)[C@H](Cc1c[nH]cn1)NC(=O)C(C)(C)NC(=O)[C@@H](N)Cc1c[nH]cn1)[C@@H](C)O)[C@@H](C)O)C(=O)N[C@@H](CC(C)C)C(=O)N[C@@H](CC(C)C)C(=O)N[C@@H](CCC(=O)O)C(=O)N[C@@H](CCCCNC(=O)COCCOCCNC(=O)COCCOCCNC(=O)CC[C@H](NC(=O)CCCCCCCCCCCCCCCCCCC(=O)O)C(=O)O)C(=O)N[C@@H](CCC(N)=O)C(=O)N[C@@H](C)C(=O)N[C@@H](C)C(=O)NC1(C(=O)N[C@@H](CCC(=O)O)C(=O)N[C@@H](Cc2ccccc2)C(=O)N[C@H](C(=O)N[C@@H](CCC(=O)O)C(=O)N[C@@H](Cc2c[nH]c3ccccc23)C(=O)N[C@@H](CC(C)C)C(=O)N[C@@H](CC(C)C)C(=O)N[C@@H](C)C(=O)N[C@H](CCC(=O)O)C(=O)NCC(=O)N2CCC[C@H]2C(=O)N[C@@H](CO)C(=O)N[C@@H](CO)C(=O)NCC(=O)N[C@@H](C)C(=O)N2CCC[C@H]2C(=O)N2CCC[C@H]2C(=O)N2CCC[C@H]2C(=O)N[C@@H](CO)C(N)=O)C(C)C)CC1` [Compound 0149] the EC50 (human GIPR) was 0.004 nM.

`CC[C@H](C)[C@H](NC(=O)[C@H](CO)NC(=O)[C@H](Cc1ccc(O)cc1)NC(=O)[C@H](CC(=O)O)NC(=O)[C@H](CO)NC(=O)[C@@H](NC(=O)[C@H](Cc1ccccc1)NC(=O)[C@@H](NC(=O)CNC(=O)[C@H](Cc1c[nH]cn1)NC(=O)C(C)(C)NC(=O)[C@@H](N)Cc1c[nH]cn1)[C@@H](C)O)[C@@H](C)O)C(=O)N[C@@H](CC(C)C)C(=O)N[C@@H](CC(C)C)C(=O)N[C@@H](CCC(=O)O)C(=O)N[C@@H](CCCCNC(=O)COCCOCCNC(=O)COCCOCCNC(=O)CC[C@H](NC(=O)CCCCCCCCCCCCCCCCCCC(=O)O)C(=O)O)C(=O)N[C@@H](CCC(N)=O)C(=O)N[C@@H](C)C(=O)N[C@@H](C)C(=O)NC1(C(=O)N[C@@H](CCC(=O)O)C(=O)N[C@@H](Cc2ccccc2)C(=O)N[C@H](C(=O)N[C@@H](CCC(=O)O)C(=O)N[C@@H](Cc2c[nH]c3ccccc23)C(=O)N[C@@H](CC(C)C)C(=O)N[C@@H](CC(C)C)C(=O)N[C@@H](C)C(=O)N[C@H](CCC(=O)O)C(=O)NCC(=O)N2CCC[C@H]2C(=O)N[C@@H](CO)C(=O)N[C@@H](CO)C(=O)NCC(=O)N[C@@H](C)C(=O)N2CCC[C@H]2C(=O)N2CCC[C@H]2C(=O)N2CCC[C@H]2C(=O)N[C@@H](CO)C(N)=O)C(C)C)CCC1` [Compound 0150] gave an EC50 (human GIPR) of 0.002 nM.

With `CC[C@H](C)[C@H](NC(=O)[C@H](CC(C)C)NC(=O)[C@H](Cc1c[nH]c2ccccc12)NC(=O)[C@H](CCC(=O)O)NC(=O)[C@@H](NC(=O)[C@H](Cc1ccccc1)NC(=O)[C@H](CCC(=O)O)NC(=O)C(C)(CC)NC(=O)[C@H](C)NC(=O)[C@H](C)NC(=O)[C@H](CCCCN)NC(=O)[C@H](CCCCNC(=O)COCCOCCNC(=O)COCCOCCNC(=O)CC[C@H](NC(=O)CCCCCCCCCCCCCCCCCCC(=O)O)C(=O)O)NC(=O)[C@H](CCC(=O)O)NC(=O)[C@H](CC(C)C)NC(=O)[C@H](CC(C)C)NC(=O)[C@](C)(CCCCN)NC(=O)[C@H](CO)NC(=O)[C@H](Cc1ccc(O)cc1)NC(=O)[C@H](CC(=O)O)NC(=O)[C@H](CO)NC(=O)[C@@H](NC(=O)[C@H](Cc1ccccc1)NC(=O)[C@@H](NC(=O)CNC(=O)[C@H](Cc1c[nH]cn1)NC(=O)C(C)(C)NC(=O)[C@@H](N)Cc1c[nH]cn1)[C@@H](C)O)[C@@H](C)O)C(C)C)C(=O)N[C@@H](CCC(=O)O)C(=O)NCC(=O)NCC(=O)N1CCC[C@H]1C(=O)N[C@@H](CO)C(=O)N[C@@H](CO)C(=O)NCC(=O)N[C@@H](C)C(=O)N1CCC[C@H]1C(=O)N1CCC[C@H]1C(=O)N1CCC[C@H]1C(=O)N[C@@H](CO)C(N)=O` (stereo partly drawn) [Compound 0131] (H-H[Aib]HGTFTSDYS[αMeK]LLEK([AEEA-AEEA-γGlu-C20 diacid])KAA[ξIva]EFVEWLIEGGPSSGAPPPS-NH2) the AUC(0-inf) [1, 2] was 22.5 µM·h, the C0 [1, 2] was 5.98 µM and the clearance ([1]; mouse, male C57 mice, single intravenous dose 200 nmol/kg, plasma, read-out: CLp) was 0.148 mL/min/kg. It also gave a half-life ([1]; mouse, male C57 mice, single intravenous dose 200 nmol/kg, plasma, read-out: T1/2 (converted)) of 10.2 h.

`CC[C@H](C)[C@H](NC(=O)[C@H](CO)NC(=O)[C@H](CC(C)C)NC(=O)[C@H](CC(=O)O)NC(=O)[C@H](CO)NC(=O)[C@@H](NC(=O)[C@H](Cc1ccccc1)NC(=O)[C@@H](NC(=O)CNC(=O)[C@H](Cc1c[nH]cn1)NC(=O)C(C)(C)NC(=O)[C@@H](N)Cc1c[nH]cn1)[C@@H](C)O)[C@@H](C)O)C(=O)N[C@@](C)(CC(C)C)C(=O)N[C@@H](CC(C)C)C(=O)N[C@@H](CCC(=O)O)C(=O)N[C@@H](CCCCNC(=O)COCCOCCNC(=O)COCCOCCNC(=O)CC[C@H](NC(=O)CCCCCCCCCCCCCCCCCCC(=O)O)C(=O)O)C(=O)N[C@@H](CCCCN)C(=O)N[C@@H](C)C(=O)N[C@@H](C)C(=O)NC1(C(=O)N[C@@H](CCC(=O)O)C(=O)N[C@@H](Cc2ccccc2)C(=O)N[C@H](C(=O)N[C@@H](CCC(=O)O)C(=O)N[C@@H](Cc2c[nH]c3ccccc23)C(=O)N[C@@H](CC(C)C)C(=O)N[C@@H](CC(C)C)C(=O)N[C@@H](C)C(=O)NCC(=O)NCC(=O)N2CCC[C@H]2C(=O)N[C@@H](CO)C(=O)N[C@@H](CO)C(=O)NCC(=O)N[C@@H](C)C(=O)N2CCC[C@H]2C(=O)N2CCC[C@H]2C(=O)N2CCC[C@H]2C(=O)N[C@@H](CO)C(N)=O)C(C)C)CCC1` [Compound 0140] showed a clearance ([1]; male, C57, mouse, iv) of 0.115 mL/min/kg and a half-life ([1]; male, C57, mouse, iv) of 9.3 h.
